Data reported in ChEMBL document CHEMBL1811841 (Bioorg Med Chem, 2011).
pKi: −log10 of the molar value.

Legend:
[1] = target: T1, Melatonin receptor type 1A (Homo sapiens, UniProt P48039); experiment: Displacement of 2-[125I]iodomelatonin from human cloned MT1 receptor expressed in mouse NIH-3T3 cell membrane; type: cell membranes, NIH3T3
[2] = target: T2, Melatonin receptor type 1B (Homo sapiens, UniProt P49286); experiment: Displacement of 2-[125I]iodomelatonin from human cloned MT2 receptor expressed in mouse NIH-3T3 cell membrane; type: cell membranes, NIH3T3
T2 sequence (P49286 whole entry): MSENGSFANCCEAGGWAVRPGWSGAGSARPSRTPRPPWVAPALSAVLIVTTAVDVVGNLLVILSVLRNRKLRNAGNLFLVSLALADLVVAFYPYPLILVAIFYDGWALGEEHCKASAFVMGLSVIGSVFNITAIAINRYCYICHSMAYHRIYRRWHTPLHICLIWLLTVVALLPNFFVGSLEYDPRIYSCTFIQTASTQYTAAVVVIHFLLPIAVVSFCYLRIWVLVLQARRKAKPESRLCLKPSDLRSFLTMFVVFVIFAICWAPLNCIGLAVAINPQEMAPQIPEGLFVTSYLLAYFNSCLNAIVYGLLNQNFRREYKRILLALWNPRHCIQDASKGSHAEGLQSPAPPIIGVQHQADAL

[3] = target: T1, Melatonin receptor type 1A; experiment: Intrinsic activity at human cloned MT1 receptor expressed in mouse NIH-3T3 cells assessed as stimulation of [35S]GTPgammaS binding relative to melatonin; type: functional, cell-based; settings: NIH3T3
Homo sapiens = species on record: Homo sapiens; experiment: Selectivity index, ratio of Ki for human cloned MT2 receptor to Ki for human cloned MT1 receptor
[4] = target: T3, Melatonin receptor type 1B (Homo sapiens) (UniProt P49286); experiment: Intrinsic activity at human cloned MT2 receptor expressed in mouse NIH-3T3 cells assessed as stimulation of [35S]GTPgammaS binding relative to melatonin; type: functional, cell-based; settings: NIH3T3
T3 sequence (whole entry): T2 sequence (P49286 whole entry)

T1 sequence (P48039 whole entry): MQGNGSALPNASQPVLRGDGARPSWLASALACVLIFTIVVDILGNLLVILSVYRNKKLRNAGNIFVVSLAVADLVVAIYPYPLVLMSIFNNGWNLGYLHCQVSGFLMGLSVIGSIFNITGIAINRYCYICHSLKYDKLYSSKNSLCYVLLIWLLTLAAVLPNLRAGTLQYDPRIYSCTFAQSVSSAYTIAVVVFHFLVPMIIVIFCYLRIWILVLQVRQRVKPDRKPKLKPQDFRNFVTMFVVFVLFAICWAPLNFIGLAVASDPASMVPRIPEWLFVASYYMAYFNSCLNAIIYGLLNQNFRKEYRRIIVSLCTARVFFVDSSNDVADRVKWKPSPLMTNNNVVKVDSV

| pKi [1] | pKi [2] | Intrinsic activity [3] | Ratio Ki (Homo sapiens) | Intrinsic activity [4] | SMILES |
| --- | --- | --- | --- | --- | --- |
| 8.40 | 7.39 | 0.42 | 10 | 0.57 | CC(=O)NCCN(C)c1cccc(OCCCCCCCCCCOc2cccc(N(C)CCNC(C)=O)c2)c1 |
| 6.42 | 6.51 | 0.12 | 0.8 | 0.37 | COc1cccc(N(CCCCCCCCCCN(CCNC(C)=O)c2cccc(OC)c2)CCNC(C)=O)c1 |
| 6.13 | 7.44 | -0.04 | 0.05 | -0.09 | COc1cccc(N(CCCCCCN(CCNC(C)=O)c2cccc(OC)c2)CCNC(C)=O)c1 |
| 7.70 | 7.03 | 0.47 | 4.7 | 0.38 | CC(=O)NCCN(C)c1cccc(OCCCCCCCCOc2cccc(N(C)CCNC(C)=O)c2)c1 |

Further lines, the compound ahead of its results:

| SMILES | pKi [1] | pKi [2] | Intrinsic activity [3] | Ratio Ki (Homo sapiens) | Intrinsic activity [4] |
| --- | --- | --- | --- | --- | --- |
| CC(=O)NCCN(C)c1cccc(OCCCCCCOc2cccc(N(C)CCNC(C)=O)c2)c1 | 8.47 | 6.74 | 0.44 | 54 | 0.33 |
| COc1cccc(N(CCNC(C)=O)C(=O)CCCCC(=O)N(CCNC(C)=O)c2cccc(OC)c2)c1 | 6.54 | 6.61 | 0.94 | 0.85 | 0.91 |
| CC(=O)NCCN(C)c1cccc(OCCCCCCOc2ccccc2)c1 | 7.84 | 6.80 | 0.49 | 11 | 0.54 |
| CC(=O)NCCN(C)c1cccc(OCCCCCOc2cccc(N(C)CCNC(C)=O)c2)c1 | 7.24 | 6.09 | 0.46 | 14 | 0.64 |
| CC(=O)NCCN(C)c1cccc(OCCCOc2cccc(N(C)CCNC(C)=O)c2)c1 | 7.69 | 5.68 | 0.26 | 102 | 0.33 |
| CC(=O)NCCN(C)c1cccc(OCCCCOc2cccc(N(C)CCNC(C)=O)c2)c1 | 7.37 | 6.00 | 0.21 | 23 | 0.18 |
